Paper PMC12035797, “Peptidomimetics Activating the Proteasome: A New Perspective for Parkinson’s Treatment” (Journal of Medicinal Chemistry, 2025)
“Also recorded” adds a separate entry of the source. *1 amine or outer side, *2 acyl side, *3 side chain or, on linkers, in order; H or OH if unused. Where a SMILES comes first, the peptide text is derived from it. [ ]: non-standard residue; d: D form. X2 = N=C(N)NCCC[C@@H](C(=O)[*:2])N(c1ccc([N+](=O)[O-])c2nonc12)[*:1]; Nlys = NCCCCNCC(=O)O

Tests used:
[1] = system: hippocampal neurons containing Lewy body-like pS129-αsyn aggregates; experiment: pS129-α-synuclein aggregates in PFF-treated hippocampal neurons; format: cell-based, mouse; conditions: 7 days after PFFs, 0.5 and 2.5 μM
Excerpt: Encouraged by the results received, we tested the ability of the modulator-CPP constructs to increase α-synuclein degradation in a cell model using primary mouse neuronal cells. The presence of Lewy-like neurites and Lewy-like bodies containing aggregated α-synuclein with phosphorylated serine 129 (pS129-αsyn) is a characteristic feature of the brains of people with Parkinson’s disease. To mimic these aggregations, we introduced a solution of preformed fibrils (PFFs) to the media of neuronal cells, which led to the induction of α-synuclein phosphorylation and its aggregation in neurons isolated from mouse embryos. PFFs are purified, prion-like fibrils of α-synuclein that are produced by expressing a recombinant monomeric protein in bacteria. Seven days after PFFs are introduced to the cells, large aggregates are visible in the cell soma, often next to the cell nucleus. We added the PFF solution to the hippocampal cells, and after an hour of incubation, we introduced solutions of the activator. After 7 days, we immunostained neuronal cells using a monoclonal antibody against the NeuN protein, which is commonly used in neuronal differentiation studies to assess their functional status. Additionally, we stained the nuclei of all incubated cells with DAPI. […] It is noteworthy that the number of cells in samples with activators was slightly higher (Figure 5), which may indicate neuroprotective properties. […] The main tool for monitoring this process was an antibody against pS129-αsyn. […] The fluorescent microscopy images (Figure 5) show the difference between the amounts of aggregated protein in the control sample and in the samples containing activators at different concentrations.
Cells were isolated from pregnant mouse embryos at E16.0 and plated on precoated with poly-L-lysine wells of 96-well plates (PerkinElmer/Revvity Inc., Waltham, MA, USA) at 25,000 cells/well. The final medium volume was 150 μL/well. Cells were incubated at 37 °C, 5% CO2. […]

[2] = PAMPA, blood–brain barrier mimic; format: in vitro ADME; conditions: 500 μM, 37 °C, 22 h
Excerpt: In neurodegenerative diseases, proteins prone to aggregation accumulate in the neuronal cells. Therefore, a necessary feature of potential drugs is not only permeability across the cell membrane but also the ability to cross the blood-brain barrier (BBB). To preliminarily investigate this feature, we performed parallel artificial membrane permeation assays (PAMPA) including as positive controls propranolol and Tat47-57, known for their ability to penetrate the blood-brain barrier. Dopamine hydrobromide was included as a negative control. For comparison, we also tested compound 1a, which is devoid of a CPP sequence. […] The PAMPA was performed as previously described.[21] Briefly, a 2% solution of porcine brain lipid membrane (PBL; Avanti Polar Lipids Inc., Alabaster, AL, USA) in anhydrous dodecane was used as a mimic of the blood-brain barrier. Propranolol hydrochloride (Merck, Darmstadt, Germany) and Tat47-57 (synthesized in-house) served as positive controls, while dopamine hydrobromide (Merck, Darmstadt, Germany) was used as a negative control. Stock solutions of the tested compounds and controls were prepared at a concentration of 10 mM in deionized water and then diluted to 500 μM using 0.1 M PBS containing 5% DMSO. The donor-acceptor plate assembly was incubated at 37 °C while being shaken at 250 rpm for 22 h. Absorbance at 290 nm was measured for propranolol using an Infinite […] plate reader (Infinite […] plate reader, Tecan). For the other samples, fluorescence measurements were performed after the compounds were reacted with 0.02% fluorescamine. The rate of passive diffusion was calculated as the linear velocity of permeation (Pe). The data represent an average of three independent biological replicates.

[3] = system: endogenous α-synuclein in primary cortical cultures; experiment: Endogenous α-synuclein level in primary cortical cultures (Simple Western Jess); format: cell-based, mouse; conditions: 2.5 μM, 7 days; statistical significance only for 1g
Description: The effectiveness of the compounds has also been examined by using proteins as substrates. By means of SDS-PAGE electrophoresis, we checked the extent to which model proteins were digested by the 20S proteasome alone and after its stimulation by 10 μM modulators. […] After incubation with the enzyme in the presence of each modulator, less than 40% of synuclein remained. […] All animal experiments were performed following the protocols evaluated and approved by the Laboratory Animal Centre of the University of Helsinki (Ethics Approval License KEK24-013) and in accordance with the European Community Guidelines (Directive 2010/63/EU). […] The viability and number of neuronal cells were calculated automatically in an Automated Cell Counter (Bio-Rad), plated at a density of 1,000,000 cells per well on 6-well plates and cultured in Neurobasal A Medium (Thermo Fisher Scientific (Gibco), #12349015, Waltham, MA, USA) supplemented with GlutaMAX (Thermo Fisher Scientific (Gibco) #A1286001, Waltham, MA, USA), B-27 Supplement (Thermo Fisher Scientific (Gibco), #17504001, Waltham, MA, USA), and 200 ng/mL Primocin (Invitrogen, ant-pm-1, San Diego, CA, USA). […] Protein concentrations in the cell lysates were determined using a bicinchoninic acid (BCA) assay (Sigma-Aldrich, 3B9643-1L-KC, MO, USA) according to the manufacturer’s instructions. […]

HEK293T cells = experiment: Fluorescence microscopy of cell penetration of NBD-labeled activators; format: cell-based, human; conditions: 10 μM, 3 h
Description: In order to verify the permeability of the constructs across cell membranes, we synthesized their analogues with an NBD fluorophore attached at the N-terminus. The excitation wavelength for this fluorophore is 467 nm, and the emission wavelength is 539 nm.
HEK293T cells were incubated in DMEM supplemented with 10% FBS and penicillin/streptomycin (100 units/mL/100 μg/mL), at 37 °C with 5% CO2. Cells were seeded on 24-well plates at a density of 3 × 10^4 cells per well and incubated in 0.5 mL of the complete medium for 48 h. Then, the fresh medium containing the modulators labeled with NBD fluorophore was added to each well at a concentration of 10 μM. Half an hour before the end of the incubation, 20 μL of Hoechst 33342 dye was added to each well, and then the plate was placed back in the incubator. After the 3 h incubation, cells were washed thoroughly with PBS, and a phenol red-free culture medium (FluoroBriteTM DMEM, Gibco/Thermo Fisher Scientific, Waltham, MA, USA) was added. Subsequently, the cells were examined using a Zeiss AXIO Observer D1 microscope (Carl Zeiss AG, Oberkochen, Germany) using an Alexa Fluor 488 filter.

Row | SMILES | effect on hippocampal cells containing α-synuclein aggregates [1] | permeability across artificial BBB membrane, PAMPA [2] | effect on endogenous α-synuclein in primary cortical cultures [3] | penetration into cells, NBD fluorescence (HEK293T cells)
1 | C[C@@H](O)[C@H](NC(=O)[C@H](Cc1ccccc1)NC(=O)[C@H](Cc1ccc(O)cc1)NC(=O)CN(CCCCN)C(=O)[C@H](CCCNC(=N)N)NC(=O)[C@H](CCCNC(=N)N)NC(=O)[C@H](CCCNC(=N)N)NC(=O)[C@H](CCNC(=N)N)NC(=O)[C@H](CCCNC(=N)N)NC(=O)[C@@H](N)CCCNC(=N)N)C(=O)NCC(=O)N[C@@H](CO)C(=O)N[C@@H](CCCCN)C(=O)N[C@@H](CC(=O)O)C(=O)N[C@@H](Cc1c[nH]c2ccccc12)C(=O)N[C@@H](CCCNC(=N)N)C(=O)N[C@@H](CO)C(=O)N[C@@H](Cc1ccc(O)cc1)C(=O)N[C@@H](Cc1ccc(O)cc1)C(=O)N[C@@H](CO)C(=O)O [1g] | effectively reduced the number of hippocampal cells containing α-synuclein; also recorded: visible dependence of the degradation ability on concentration | had the ability to penetrate the artificial membrane mimicking the BBB | able to reduce the amount of endogenous α-synuclein | 
2 | C[C@@H](O)[C@H](NC(=O)[C@H](Cc1ccccc1)NC(=O)[C@H](Cc1ccc(O)cc1)NC(=O)CN(CCCCN)C(=O)[C@H](CCCNC(=N)N)NC(=O)[C@H](CCCNC(=N)N)NC(=O)[C@H](CCCNC(=N)N)NC(=O)[C@H](CCC(N)=O)NC(=O)[C@H](CCCNC(=N)N)NC(=O)[C@H](CCCNC(=N)N)NC(=O)[C@H](CCCCN)NC(=O)[C@H](CCCCN)NC(=O)[C@H](CCCNC(=N)N)Nc1ccc([N+](=O)[O-])c2nonc12)C(=O)NCC(=O)N[C@@H](CO)C(=O)N[C@@H](CCCCN)C(=O)N[C@@H](CC(=O)O)C(=O)N[C@@H](Cc1c[nH]c2ccccc12)C(=O)N[C@@H](CCCNC(=N)N)C(=O)N[C@@H](CO)C(=O)N[C@@H](Cc1ccc(O)cc1)C(=O)N[C@@H](Cc1ccc(O)cc1)C(=O)N[C@@H](CO)C(=O)O [1f_NBD] (H-[X2]KKRRQRRR[Nlys]YFTGSKDWRSYYS-OH; C-terminus assumed) |  |  |  | fluorescence from the attached NBD tag is visible inside HEK293T cells
3 | C[C@@H](O)[C@H](NC(=O)[C@H](Cc1ccccc1)NC(=O)[C@H](Cc1ccc(O)cc1)NC(=O)CN(CCCCN)C(=O)[C@H](CCCNC(=N)N)NC(=O)[C@H](CCCNC(=N)N)NC(=O)[C@H](CCCNC(=N)N)NC(=O)[C@H](CCCNC(=N)N)NC(=O)[C@H](CCCNC(=N)N)NC(=O)[C@H](CCCNC(=N)N)Nc1ccc([N+](=O)[O-])c2nonc12)C(=O)NCC(=O)N[C@@H](CO)C(=O)N[C@@H](CCCCN)C(=O)N[C@@H](CC(=O)O)C(=O)N[C@@H](Cc1c[nH]c2ccccc12)C(=O)N[C@@H](CCCNC(=N)N)C(=O)N[C@@H](CO)C(=O)N[C@@H](Cc1ccc(O)cc1)C(=O)N[C@@H](Cc1ccc(O)cc1)C(=O)N[C@@H](CO)C(=O)O [1g_NBD] (H-[X2]RRRRR[Nlys]YFTGSKDWRSYYS-OH; C-terminus assumed) |  |  |  | fluorescence from the attached NBD tag is visible inside HEK293T cells
